# Laboratory results published in patent publication US10053447B2, “Fluorescent compounds” (Pierce Biotechnology, Inc, priority 2010, dated 2018).
# Assays:
# [1] = Spectral properties of the dyes compared with commercially available dyes; format: physicochemical; settings: reactive ester form of the dye
# IMR90 cells = experiment: Direct fluorescence labeling of cell surface proteins; format: cell-based, human; settings: 6 μm, 3 μm, 1.5 μm, and 0.75 μm as printed; 30 min
# Procedure: The inventive compounds and commercial dyes were evaluated in direct fluorescence labeling of cell surface proteins using the following protocol. DyLight 549-NHS, 550 Compound 1-NHS, and Whole Cell Stain Orange (Thermo Fisher Scientific) were reconstituted in DMF and diluted to 6 μM in Dulbecco's PBS (DPBS). A total of four 1:1 serial dilutions of the dyes were prepared in DPBS. Frozen IMR90 cells (human lung embryonic fibroblast) on a plate were thawed for 1 h at 37° C. The cell plates were washed two times with DPBS and incubated with dye dilutions for 30 min at room temperature protected from light. The cell plates were then washed three times with DPBS. The cell plates were incubated with 100 μl/well of 1 μg/ml Hoechst dye in DPBS. The cell plates were sealed and imaged using the Thermo Scientific ArrayScan VTI HCS Reader.
# The inventive compounds and commercial dye were evaluated in direct fluorescence labeling of cell surface proteins. DyLight 649-NHS, 650 Compound 1-NHS, and Whole Cell Stain Orange (Thermo Fisher Scientific) were reconstituted in DMF and diluted to 6 μM in Dulbecco's PBS (DPBS). A total of four 1:1 serial dilutions of the dyes were prepared in DPBS. Frozen IMR90 cells (human lung embryonic fibroblast) on a plate were thawed for 1 h at 37° C. […] The cell plates were sealed and imaged using the Thermo Scientific ArrayScan VTI HCS Reader.
# streptavidin (SA) [2] = biological target: T1, streptavidin (SA) (Streptomyces avidinii, UniProt P22629); experiment: Labeling efficiency (degree of labeling, mole dye to mole protein ratio) of streptavidin; settings: SA, NHS ester, 5X molar excess
# T1 sequence (P22629 25-183, species assumed): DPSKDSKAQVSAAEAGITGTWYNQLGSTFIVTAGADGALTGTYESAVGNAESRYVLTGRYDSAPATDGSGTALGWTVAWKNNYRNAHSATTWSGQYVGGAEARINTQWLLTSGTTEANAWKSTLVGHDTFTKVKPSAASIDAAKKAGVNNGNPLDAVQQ
# Procedure: Inventive and commercial compounds, each as the NHS ester, were conjugated to goat anti-mouse (GAM), goat anti-rabbit (GAR) antibodies, and streptavidin (SA). GAM, GAR, and SA, at 10 mg/ml in phosphate buffered saline (PBS), were dialyzed against 50 mM borate buffer, pH 8.5. The compounds were reconstituted in dimethylformamide (DMF) at 10 mg/ml and combined at 2×, 4×, 5×, 7.5×, or 10× molar excess with GAM, GAR, or SA for 2 h at room temperature to label the antibodies or SA.
# The labeled compounds, also termed dyes or labels, were subjected to PDDR to remove the unlabeled (free) compound; 100 μl of the packed resin was used per mg of protein purified. The purified antibody-labeled dyes were then diluted 1:50 in PBS and scanned for absorbance from 700 nm to 230 nm to determine the protein concentration, and to determine the mole dye to mole protein ratio. Each conjugate was diluted 1:10 in 50% glycerol and heated in the presence of 10 mM dithiothreitol (DTT) for 5 min at 95° C., then separated by electrophoresis on polyacrylamide gels in the presence of sodium dodecyl sulfate (SDS-PAGE). The gels were scanned using the Typhoon 9400 Imager to verify removal of the unconjugated compound. Labeling efficiency was compared, with results showing degree of labeling below.
# Compounds 1, 2, and 3, each as the NHS ester, and DyLight 649-NHS were conjugated to goat anti-mouse (GAM) and goat anti-rabbit (GAR) antibodies. GAM and GAR, at a concentration of 10 mg/ml in phosphate buffered saline (PBS), were dialyzed against 50 mM borate buffer, pH 8.5. The compounds were reconstituted in dimethylformamide (DMF) at 10 mg/ml. To label the antibodies, the compounds were added at 2.5× molar excess and 5× molar excess for 2 h at room temperature. Streptavidin (SA) was reconstituted in PBS buffer, pH 7.2, and 50 mM borate buffer, pH 8.5, and labeled with 2.5× molar excess and 4× molar excess of the compound.
# The antibody-labeled compounds, also termed dyes or labels, were subjected to gel filtration chromatography (15 cm×0.8 cm columns) or to the PDDR to remove the unlabeled (free) compound; 100 μl of the packed resin was used per mg of protein purified. The purified antibody-labeled dyes were then diluted 1:100 in PBS and scanned for absorbance from 700 nm to 230 nm to determine the protein concentration, and to determine the mole dye to mole protein ratio. Each conjugate was diluted 1:10 in 50% glycerol and heated in the presence of 10 mM dithiothreitol (DTT) for 5 min at 95° C., then separated by electrophoresis on polyacrylamide gels in the presence of sodium dodecyl sulfate (SDS-PAGE). The gels were scanned using the Typhoon 9400 Imager to verify removal of the unconjugated compound. Labeling efficiency was compared using labeling of the compounds to GAM antibody at a 2.5× molar excess of compound, with results shown below.
# Labeling efficiency was also compared using labeling of the dyes to streptavidin (SA) at either a 2.5 fold or a 4 fold molar excess of the dye, with SA in PBS, pH 7.2, and borate buffer, pH 8.5.
# 650 Compound 1 (isomer 2)-TFP, 650 Compound 1 (isomer 1)-TFP, 650 Compound 1 (isomer 2)-TFP, 650 Compound 1-NHS, and DyLight 649-NHS were conjugated to GAM, GAR, and SA. GAM and GAR, at a concentration of 10 mg/ml in phosphate buffered saline (PBS), were dialyzed against 50 mM borate buffer, pH 8.5. The compounds were reconstituted in dimethylformamide (DMF) at 10 mg/ml and used to label antibodies at 5× molar excess of compound for two hours at room temperature to label the antibodies. SA was reconstituted in 50 mM borate buffer, pH 8.5, and combined with 4× molar excess to label the SA.
# The antibody-conjugated and SA-conjugated compounds, also termed dyes or labels, were subjected to the PDDR to remove the unlabeled (free) compound. The purified antibodies and SA were then diluted 1:25 in PBS and scanned for absorbance from 700 nm to 230 nm to determine the protein concentration, and to determine the mole dye to mole protein ratio. […]
# streptavidin (SA) [3] = biological target: T1, streptavidin (SA); experiment: as above; settings: NHS ester, 3X molar excess
Molecule,Emission (Em) [1],Excitation (Ex) [1],ε [1],Performance in direct fluorescence labeling of cell surface proteins (IMR90 cells),D/P 5X (streptavidin (SA) [2]),D/P 3X (streptavidin (SA) [3])
COCCN1/C(=C/C=C/C2=[N+](CCCCCC(=O)ON3C(=O)CCC3=O)c3ccc(S(=O)(=O)[O-])cc3C2(C)CCCS(=O)(=O)O)C(C)(CCCS(=O)(=O)O)c2cc(S(=O)(=O)O)ccc21 (centres unmarked) [550 Compound 1-NHS],572 nm,557 nm,"142,000 M−1cm−1",performed equivalently as DyLight 549-NHS,,
Alexa 750-SA: Alexa 750 conjugated to streptavidin (SA) [reference compound],,,,,4.7,3.3
DyLight 750-SA: DyLight 750 conjugated to streptavidin (SA) [reference compound],,,,,4.0,2.5
